Patent US6277847A, “Herbicidal isoindolinonyl-and 3,4-dihydroisoquinolonyl-substituted heterocycles” (FMC Corporation, priority 2000, dated 2001)

Experiments:
Type in all cases: in vivo
[1] = tested on: soybean (Glycine max -- var. Winchester); assay: pre-emergence herbicidal activity, soybean; conditions: 1 kg/Ha, about fourteen days, read-out: pre-emergence herbicidal activity (% control) SOY
Method in brief: (§1)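 Seeds sown in soil flats and sprayed pre-emergence with a water/acetone solution of test compound at 1 kg/Ha; untreated controls kept alongside. Phytotoxicity scored after about fourteen days as percent control, 0 being no effect and 100 complete control.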

[2] = tested on: wheat (Triticum aestivum var. Lew); assay: pre-emergence herbicidal activity, wheat; conditions: 1 kg/Ha, about fourteen days, read-out: pre-emergence herbicidal activity (% control) WHT
Method in brief: as §1

[3] = tested on: field corn (Zea mays var. Pioneer 3732); assay: pre-emergence herbicidal activity, corn; conditions: 1 kg/Ha, about fourteen days, read-out: pre-emergence herbicidal activity (% control) CRN
Method in brief: as §1

[4] = tested on: velvetleaf (Abutilon theophrasti); assay: pre-emergence herbicidal activity, velvetleaf; conditions: 1 kg/Ha, about fourteen days, read-out: pre-emergence herbicidal activity (% control) ABUTH
Method in brief: as §1

[5] = tested on: morningglory (Ipomea lacunosa or Ipomea hederacea); assay: pre-emergence herbicidal activity, morningglory; conditions: Ipomoea, 1 kg/Ha, about fourteen days, read-out: pre-emergence herbicidal activity (% control) IPOSS
Method in brief: as §1

[6] = tested on: common chickweed (Stellaria media); assay: pre-emergence herbicidal activity, chickweed; conditions: 1 kg/Ha, about fourteen days, read-out: pre-emergence herbicidal activity (% control) STEME
Method in brief: as §1

[7] = tested on: common cocklebur (Xanthium strumarium L.); assay: pre-emergence herbicidal activity, cocklebur; conditions: 1 kg/Ha, about fourteen days, read-out: pre-emergence herbicidal activity (% control) XANPE
Method in brief: as §1

[8] = tested on: blackgrass (Aloepecurus myosuroides); assay: pre-emergence herbicidal activity, blackgrass; conditions: Alopecurus myosuroides, 1 kg/Ha, about fourteen days, read-out: pre-emergence herbicidal activity (% control) ALOMY
Method in brief: as §1

[9] = tested on: green foxtail (Setaria viridis); assay: pre-emergence herbicidal activity, green foxtail; conditions: 1 kg/Ha, about fourteen days, read-out: pre-emergence herbicidal activity (% control) SETVI
Method in brief: as §1

[10] = tested on: soybean (Glycine max -- var. Winchester); assay: post-emergence herbicidal activity, soybean; conditions: 1 Kg/Ha, about fourteen days, read-out: post-emergence herbicidal activity (% control) SOY
Method in brief: (§2)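 Application rate was 1 Kg/Ha, sprayed post-emergence from a water/acetone solution onto flat-grown plants. Injury is expressed as percent control, 100 meaning complete control, assessed roughly two weeks later.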

[11] = tested on: wheat (Triticum aestivum var. Lew); assay: post-emergence herbicidal activity, wheat; conditions: 1 Kg/Ha, about fourteen days, read-out: post-emergence herbicidal activity (% control) WHT
Method in brief: as §2

[12] = tested on: field corn (Zea mays var. Pioneer 3732); assay: post-emergence herbicidal activity, corn; conditions: 1 Kg/Ha, about fourteen days, read-out: post-emergence herbicidal activity (% control) CRN
Method in brief: as §2

[13] = tested on: velvetleaf (Abutilon theophrasti); assay: post-emergence herbicidal activity, velvetleaf; conditions: 1 Kg/Ha, about fourteen days, read-out: post-emergence herbicidal activity (% control) ABUTH
Method in brief: as §2

[14] = tested on: morningglory (Ipomea lacunosa or Ipomea hederacea); assay: post-emergence herbicidal activity, morningglory; conditions: Ipomoea, 1 Kg/Ha, about fourteen days, read-out: post-emergence herbicidal activity (% control) IPOSS
Method in brief: as §2

[15] = tested on: common chickweed (Stellaria media); assay: post-emergence herbicidal activity, chickweed; conditions: 1 Kg/Ha, about fourteen days, read-out: post-emergence herbicidal activity (% control) STEME
Procedure: (§3) This example sets forth the methods of herbicidal testing conducted on the specific compounds set forth below. Specifically, the compounds referenced below were tested for pre- and post-emergence herbicidal activity using a variety of crops and weeds. The test plants include, but are not limited to, soybean (Glycine max -- var. Winchester), field corn (Zea mays var. Pioneer 3732), wheat (Triticum aestivum var. Lew), morningglory (Ipomea lacunosa or Ipomea hederacea), velvetleaf (Abutilon theophrasti), green foxtail (Setaria viridis), Johnsongrass (Sorghum halepense), blackgrass (Aloepecurus myosuroides), common chickweed (Stellaria media), and common cocklebur (Xanthium strumarium L.).
(§4) In the post-emergence test, seeds of the plant species named above were planted in flats containing the appropriate soil mixture where they were maintained to allow the seeds to germinate. When the plants in these flats reached the proper stage of growth, flats for the pre-emergence tests were planted in a like manner. The flats containing the post-emergence and pre-emergence test plant species were then sprayed with an appropriately concentrated water/acetone solution of test compound. Once treated the flats were maintained, along with untreated controls, for about fourteen days. All treated plants were then examined for phytotoxicity, which was expressed as percent control where 0 is no effect and 100 is complete control. Effective rates of application for the compounds of the present invention range from 0.001 to 3 kg/ha, more likely from […] to 1 Kg/ha.
(§5) Herbicidal activity data at selected application rates are in Tables 4 and 5. The test compounds are identified by numbers correspond to those in Table 1.
(§6) SOY is soybean, WHT is wheat, CRN is corn, ABUTH is velvetleaf, IPOSS is
(§7) morningglory, STEME is chickweed, XANPE is cocklebur, ALOMY is blackgrass,
(§8) Rate of application of test compound is 1 Kg/Ha. The definitions as shown under Table 4 apply to Table 5.

[16] = tested on: common cocklebur (Xanthium strumarium L.); assay: post-emergence herbicidal activity, cocklebur; conditions: 1 Kg/Ha, about fourteen days, read-out: post-emergence herbicidal activity (% control) XANPE
Method in brief: as §2

[17] = tested on: blackgrass (Aloepecurus myosuroides); assay: post-emergence herbicidal activity, blackgrass; conditions: Alopecurus myosuroides, 1 Kg/Ha, about fourteen days, read-out: post-emergence herbicidal activity (% control) ALOMY
Procedure: as §3, §4, §5, §6, §7, §8

[18] = tested on: green foxtail (Setaria viridis); assay: post-emergence herbicidal activity, green foxtail; conditions: 1 Kg/Ha, about fourteen days, read-out: post-emergence herbicidal activity (% control) SETVI
Method in brief: as §2

Row | SMILES | activity at 1000 g/ha [1] | activity at 1000 g/ha [2] | activity at 1000 g/ha [3] | activity at 1000 g/ha [4] | activity at 1000 g/ha [5] | activity at 1000 g/ha [6] | activity at 1000 g/ha [7] | activity at 1000 g/ha [8] | activity at 1000 g/ha [9] | activity at 1000 g/ha [10] | activity at 1000 g/ha [11] | activity at 1000 g/ha [12] | activity at 1000 g/ha [13] | activity at 1000 g/ha [14] | activity at 1000 g/ha [15] | activity at 1000 g/ha [16] | activity at 1000 g/ha [17] | activity at 1000 g/ha [18]
1 | CCCn1c(C(F)(F)F)cc(=O)n(-c2ccc(Cl)c3c2CN(C(C)C)C3=O)c1=O [Compound 72] | 20% | 30% | 70% | 40% | 25% | 65% | 40% | 30% | 75% | 60% | 0% | 60% | 20% | 10% | 10% | 10% | 10% | 50%
2 | CC(C)N1Cc2c(-n3c(=O)cc(C(F)(F)F)n(Cc4ccccc4)c3=O)ccc(Cl)c2C1=O [Compound 73] | 95% | 69% | 90% | 100% | 40% | 100% | 70% | 70% | 100% | 90% | 50% | 75% | 100% | 80% | 100% | 75% | 70% | 60%
3 | CCOC(=O)Cn1c(C(F)(F)F)cc(=O)n(-c2ccc(Cl)c3c2CN(C(C)C)C3=O)c1=O [Compound 74] | 5% | 0% | 0% | 5% | 20% | 10% | 30% | 10% | 5% | 40% | 10% | 30% | 20% | 30% | 20% | 20% | 30% | 10%
4 | C#CCn1c(C(F)(F)F)cc(=O)n(-c2ccc(Cl)c3c2CN(C(C)C)C3=O)c1=O [Compound 75] | 100% | 100% | 95% | 100% | 100% | 100% | 95% | 95% | 100% | 60% | 70% | 50% | 100% | 50% | 100% | 85% | 100% | 45%
5 | Cn1c(C(F)(F)F)cc(=O)n(-c2ccc(Cl)c3c2CN(C2CCCC2)C3=O)c1=O [Compound 76] | 100% | 80% | 95% | 100% | 100% | 100% | 100% | 90% | 100% | 95% | 100% | 100% | 100% | 100% | 100% | 100% | 100% | 100%
6 | Cn1c(C(F)(F)F)cc(=O)n(-c2ccc(Cl)c3c2CN(C2CCCCC2)C3=O)c1=O [Compound 77] | 100% | 80% | 90% | 100% | 100% | 100% | 100% | 95% | 100% | 95% | 80% | 100% | 100% | 100% | 100% | 100% | 100% | 100%
7 | Cn1c(C(F)(F)F)cc(=O)n(-c2ccc(Cl)c3c2CN(CCF)C3=O)c1=O [Compound 78] | 100% | 100% | 100% | 100% | 100% | 100% | 100% | 100% | 100% | 100% | 100% | 100% | 100% | 100% | 100% | 100% | 100% | 100%
8 | C=CCn1c(C(F)(F)F)cc(=O)n(-c2ccc(Cl)c3c2CN(C(C)C)C3=O)c1=O [Compound 80] | 70% | 80% | 70% | 100% | 80% | 100% | 40% | 80% | 95% | 85% | 50% | 75% | 95% | 30% | 100% | 40% | 65% | 80%
9 | CC(C)N1Cc2c(-n3c(=O)cc(C(F)(F)F)n(C)c3=O)ccc(Br)c2C1=O [Compound 81] | 100% | 100% | 100% | 100% | 100% | 100% | 100% | 100% | 100% | 100% | 100% | 100% | 100% | 100% | 100% | 100% | 100% | 100%
